{
  "source": "patent US8569055B2",
  "about": "“Identification and characterization of cancer stem cells and methods of use” (City of Hope, priority 2006, dated 2013)",
  "format_in_all_cases": "cell-based, human",
  "key": {"[1]": {"test_system": "non-sorted NCI-H211, NCI-H69AR, NCI-H1417 cells", "experiment": "Cytotoxicity assay (Guava ViaCount), 5-FU, non-sorted SCLC cell lines", "settings": "5-FU up to 200 μg/ml, 72 hours", "method": "(§1) FIG. 2: Cytotoxic effect of 5-FU on non-sorted and sorted (uPAR-positive and uPAR-negative populations) derived from SCLC cell lines. (A) […] cells (H211, H69AR, H1417) were placed in wells of a 48-well plate in triplicates and incubated for 72 hr in the presence of varying concentrations of 5-FU. (B) SCLC cell lines were FACS sorted after staining with anti-uPAR antibodies and were plated at the same seeding density ([…]/well of 96-well plate) and treated with 5-FU at […] for 72 hr. Cell survival was evaluated after adding Guava ViaCount reagent and counting viable and dead cells. Only viable cells were included in data analysis, and 100% viability was defined as number of viable cells cultured in absence of 5-FU. […] The data points represent averages±SD of three independent experiments. […]\n(§2) Cells were counted, placed into 96-well plates (4×10^3 cells/well, in triplicate), and treated with 5-fluorouracil (5-FU) at a final concentration of 0, 3, 10, 100, or 200 μg/ml. After incubation for 72 hours, both viable and dead cells were counted using the Guava ViaCount assay. […] Fluorescence of the dyes allows quantitative assessment of both viable and non-viable cells in suspension. […]"}, "[2]": {"test_system": "uPAR-positive sorted NCI-H211 cells", "experiment": "Cytotoxicity assay (Guava ViaCount), 5-FU, sorted uPAR-positive NCI-H211", "settings": "uPAR-positive sorted NCI-H211, 72 hours", "method": "as §1, §2"}, "[3]": {"test_system": "uPAR-positive sorted NCI-H1417 cells", "experiment": "Cytotoxicity assay (Guava ViaCount), 5-FU, sorted uPAR-positive NCI-H1417", "settings": "uPAR-positive sorted NCI-H1417, 72 hours", "method": "as §1, §2"}, "[4]": {"test_system": "uPAR-positive NCI-H69AR cells", "experiment": "Cytotoxicity assay (Guava ViaCount), 5-FU, sorted uPAR-positive NCI-H69AR", "settings": "72 hours", "method": "as §1, §2"}, "[5]": {"test_system": "uPAR-negative NCI-H69AR cells", "experiment": "Cytotoxicity assay (Guava ViaCount), 5-FU, sorted uPAR-negative NCI-H69AR", "settings": "72 hours", "method": "as §1, §2"}, "NSC F3 stem cell": {"test_system": "NSC F3 stem cell", "experiment": "Inhibition of stem cell migration by uPAR inhibitors, in vitro migration assay", "settings": "inhibitor applied to lower chamber of migration assay system", "description": "FIG. 10: Inhibition of NSC F3 stem cell migration by anti-uPAR antibodies and bikunin.\nThe role of the uPA/uPAR system in stem cell migration was investigated using the immortalized neural stem cell line (NSC) HB1.F3.C1 and bone marrow-derived mesenchymal stem cells (MSC) (passages 5-6) for in vitro cell migration assays. Five cancer cell lines expressing high levels of uPAR (SK-N-AS, U251, PC-3, MDA-MB-231, and CRL-5904) and five cancer cell lines expressing low levels of uPAR (COLO-320, NB-1691, CRL-5824, CRL-5869, and MCF-7) as determined in Example 6 were utilized for this experiment.\nThe effect of uPAR inhibitors on stem cell migration was examined in order to verify that increased stem cell migration to tumor cells expressing high levels of uPAR was dependent on uPAR. Bikunin, a physiological inhibitor of uPA, and various anti-uPAR antibodies were applied to the lower chamber of the migration assay system."}},
  "data": [
    {"molecule": "O=c1[nH]cc(F)c(=O)[nH]1", "note": "[5-FU, 5-fluorouracil]", "values": [
      {"measurement": "cells killed", "setting": "[1]", "result": "40-80%"},
      {"measurement": "cells killed", "setting": "[2]", "result": "40-50%"},
      {"measurement": "cells killed", "setting": "[3]", "result": "40-50%"},
      {"measurement": "cells killed", "setting": "[4]; 10 μg/ml 5-FU", "result": 30, "unit": "%"},
      {"measurement": "killing effect", "setting": "[4]; 200 μg/ml 5-FU", "result": "approximately 100%"},
      {"measurement": "cells killed", "setting": "[5]; 10 μg/ml 5-FU", "result": 85, "unit": "%"},
      {"measurement": "killing effect", "setting": "[5]; 200 μg/ml 5-FU", "result": "approximately 100%"}
    ]},
    {"molecule": "Bikunin: a physiological inhibitor of uPA (protein, UniProt P02760 206-352, looked up, Inter-alpha-trypsin inhibitor light chain) Inter-alpha-trypsin inhibitor …: AVLPQEEEGSGGGQLVTEVTKKEDSCQLGYSAGPCMGMTSRYFYNGTSMACETFQYGGCMGNGNNFVTEKECLQTCRTVAACNLPIVRGPCRAFIQLWAFDAVKGKCVLFPYGGCQGNGNKFYSEKECREYCGVPGDGDEELLRFSN", "values": [
      {"measurement": "inhibition of stem cell migration", "setting": "NSC F3 stem cell", "result": "effectively inhibited stem cell migration"}
    ]}
  ]
}
